# Data as given in article PMC7849011, “Defining the Antimalarial Activity of Cipargamin in Healthy Volunteers Experimentally Infected with Blood-Stage Plasmodium falciparum” (Antimicrobial Agents and Chemotherapy, 2021).
# Assays:
# clinical = conditions: human, in vivo, 10 mg
# Experimental: Blood samples were collected at the following time points after dosing to determine the cipargamin plasma concentration: 1, 2, 3, 4, 8, 12, 16, 24, 36, 48, 72, 96, and 120 h. Samples were analyzed by liquid chromatography-tandem mass spectrometry as previously described ([8]). Noncompartmental PK analysis was performed using WinNonlin Pro version 6.4.
# [1] = Population PK model (two-compartment); format: in vivo, human
# Experimental: Data preparation, exploration, model definition, model evaluation and simulations were performed in R (version 3.5.1) and the R package IQRtools (version 1.0.6; IntiQuan, Basel, Switzerland) within the software package MonolixSuite 2018R2 (Lixoft, Antony, France). The MIC and the minimum parasiticidal concentration that achieves 90% of maximum effect (MPC90) were derived from the PK/PD model. Simulations were performed to predict the minimum effective single dose, defined as the dose that clears 10^9 parasites/ml. Further detail on PK/PD modeling methods is presented in Text S1.
# Pharmacokinetic/Pharmacodynamic modelling methods and results […]
# The objectives of the PK/PD modelling anal ysis w ere:
# 1. To develop a population PK model of cipar gamin in healthy subjects inoculated with blood stage P. falciparum .
# 2. To char acterize the PK/PD relationship between cipargamin pharmacokinetics and parasite cl ear ance in h eal th subjects inoculated with blood stage P. falcipar um .
# 3. To determine the minimum inhibitory concent ration (M IC ) of cipargamin .
# 4. To establish the minimum effective cipar gamin single dose required to kill 10 9
# Data preparation, exploration, model definition, model evaluation and simulations were performed in R (version 3.5.1) and the R package IQRtools (version 1.0.6, IntiQuan GmbH, Basel, Switzerland) withi n the software package MonolixSuite2018R2 (Li xoft, Anton y, Fran ce) which implemen ts stochastic approx imation ex pectation-maximisation (SAEM) algorithm for parameter estimation.
# One-, two- and three-compartment with different absorption and elimination models were tested. Zero- and first-order absorption models wi th or without lag time were examined. Data below the lower limit of quantitation ( LLO Q; 0.001 µg/ m L) were treated using a left - censoring method. Between subject vari abilit y ( BSV) of the PK parameters was assumed to be normally distributed on log -scale. The random effects across the par ameters within an individual were modelled according to a multivari ate normal distribution (MVN). BS V w as […]
# supported by the data.The residual unexplained variabilit y (RUV) was tested using a proportional or combined error models.
# Population PK/PD modelling
# A sequential PK/PD modelling approach was used in which the empirical Bayes estimates of individual PK parameters were us ed as r egression parameters for the PK/P D model. The observations below the limit of detection (LOD; 10 parasites/mL) were mo del led using a l eft-censoring method. In this anal ysis, the changes in parasitemia over time in the presen ce of antimalarial dru g are ass umed to be a result of the differen ce b etween p ar asite growth rate (k grow ) and the r ate at wh ich parasites are killed b y the drug (k k ill ) with a baseline parasitemia (P L base ) at time t 0 (time of inoculation). Diff erent structural PK/PD models were tested to assess the relationship of cipar gamin plasma concentration on the parasite ki lling rate. The E max model assumed a direct effect of cipargamin plasma concent rations on parasite killing.
# The turnover model assumed an indirect effect of cipargamin plasma concentrations on parasite killing due to lag in the PD processes (i.e. the kinetics of dru g-receptor binding). The effect compartment mod el assumed an indirect ef fect of cipar gamin plasm a concentration on parasite killing due to biophase equilibration. […]
# P. vivax = system: P. vivax; parameters: method as in PMID 25075833; conditions: 30 mg per day for 3 days, P. vivax malaria patients; cited from earlier work
structure (smiles),measurement,setting,value
C[C@H]1Cc2c([nH]c3cc(Cl)c(F)cc23)[C@@]2(N1)C(=O)Nc1ccc(Cl)cc12 [cipargamin],"drug exposure (AUC0–∞) in IBSM subjects, fold lower than in patients with naturally acquired malaria",clinical,around 3 fold
same,AUC(0-inf),clinical; po,1950 ± 753 ng·h/mL
same,"CL/F, mean ± SD (% CV)",clinical; po,5.72 ± 1.93 (33.7) liters/h
same,Cmax,clinical; po,101 ± 18.3 ng/mL
same,Tmax,clinical; po,2 h
same,Vd/F,clinical; po,209 ± 54.5 L
same,AUC(0-t),"clinical; po, AUC0–24 h, mean ± SD (% CV)",1010 ± 242 ng·h/mL
same,AUC(0-t),"clinical; po, AUC0–last, mean ± SD (% CV)",1850 ± 690 ng·h/mL
same,half-life,"clinical; po, t1/2 (elimination half-life), mean ± SD (% CV)",~26 h
same,"CL/F, estimate (RSE %)",[1]; final population PK model,5.5 (10.7) L/h
same,"Vc/F, estimate (RSE %)",[1]; final population PK model,64.4 (8.9) L
same,"Q1/F, estimate (RSE %)","[1]; human, in vivo",12.9 (9.0) L/h
same,"Vp1/F, estimate (RSE %)","[1]; human, in vivo",107 (4.8) L
same,"ka, estimate (RSE %)","[1]; human, in vivo",0.919 (4.6) /h
same,parasite clearance half-life,P. vivax,0.95 h
